The nature of the data set: gradient 5% acetonitrile 3 min, to 50% in 2 min, to 85% in 15 min, held 3 min, 100 µL/min. Conditions: column: Zorbax Extend-C18 2.1 x 50 mm; eluents: water / acetonitrile, 0.1% formic acid. The method in brief:
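Pure standards were analyzed in mixtures of ~100 molecules using HPLC coupled to a quadrupole time-of-flight mass spectrometer, in both positive and negative ionization mode. Separation used a Zorbax Extend-C18 column (2.1 × 50 mm, 1.8 μm) at 100 μL/min, with water and acetonitrile each containing 0.1% formic acid. Dead and dwell volumes were 40 μL and 900 μL, and data were collected over 3 months. Retention time was read from computationally picked adduct peaks, each inspected manually.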
Turning to `Cc1nc(-c2ccc(N3CCN(C(=O)c4cc(Cl)ccc4F)CC3)nc2)sc1C`, the RP-LC retention time worked out at 990 s.
The value for `CC(C)c1cc(C(=O)Nc2ccccc2)nc2ccnn12` was 1080 s; that for `O=c1cc(-c2ccccc2)c2c(O)cc(O)cc2o1` was 721 s; that for `O=C(c1cccs1)N(Cc1ccco1)c1nc2c(F)cc(F)cc2s1` was 1160 s.
The value for `CC1(C(=O)NCc2ccc3c(c2)OCO3)CCN(C(=O)c2ccccc2C(F)(F)F)CC1` was 822 s.
`CC(=O)Nc1ccc(NC(=O)CN2C(=O)C3CCCCN3C(=O)c3ccccc32)cc1` (stereo not drawn) came in with an RP-LC retention time of 651 s.
The value for `Cc1ccc(N2C(=O)C3N=NN(Cc4nc(-c5ccccc5)no4)C3C2=O)cc1` (stereo not drawn) was 975 s; that for `COc1ccc2c(c1)C1(CCN(C(=O)CC(C)(C)C)C1)C(=O)N2` (stereo not drawn) was 725 s.
`O=C(NCc1ccc(F)c(Cl)c1)C1CCCN(c2cnc3nccnc3c2)C1` (stereo not drawn) gave an RP-LC retention time of 757 s.
To `Cc1cccc(-c2nc(C3CCN(S(=O)(=O)c4ccc5c(c4)CCCC5)CC3)no2)c1` belongs 1410 s; to `O=C(O)c1ccc(Nc2c(-c3cccc(Cl)c3)nc3cnccn23)cc1`, 714 s; to `COCCCNC(=O)c1ccc(Oc2nccnc2N2CCC(C)CC2)cc1`, 956 s.
To `Cc1nc2ccccc2c(=O)n1Cc1noc(-c2ccccc2Br)n1` belongs 871 s; to `CSc1ccc(CNC(=O)Cn2cc(-c3nnco3)c3ccccc32)cc1`, 805 s; to `O=C(Nc1cnc(N2CCCC2)nc1)c1ccc(Br)o1`, 732 s.
Compound `O=S(=O)(c1cccc(C(F)(F)F)c1)N1CCOCC1` showed an RP-LC retention time of 794 s.
The value for `Cc1cccc(NC(=O)N2CCCC(C)(C(=O)NCc3ccc(F)cc3)C2)c1` (stereo not drawn) was 924 s.
To `CCn1c(=O)c2cc(C(=O)NCCc3ccc(OC)c(OC)c3)nn2c2ccccc21` belongs 910 s; to `COc1ccc(N2CCN(C(=O)Cn3ccc4c(c(C)nn4-c4ccccc4)c3=O)CC2)cc1`, 736 s; to `Cc1ccc(-c2nc(NCC3CCCO3)ncc2C(=O)O)cc1` (stereo not drawn), 735 s.
Compound `CCOc1ccc(-c2nc(Cn3ccn4nc(-c5ccc(OC)cc5)cc4c3=O)c(C)o2)cc1OC` came in with an RP-LC retention time of 1030 s.
To `O=C(CSc1nnc(CNC(=O)c2ccc(F)cc2)o1)NCc1ccco1` belongs 647 s; to `CCOc1cc(S(=O)(=O)Nc2cccc3cn[nH]c23)ccc1Br`, 804 s; to `Cc1ccc(-n2ncc3c(=O)n(Cc4nc(-c5ccc(Br)cc5)no4)cnc32)cc1`, 1200 s.
In turn, `Cc1nn(C(C)C(=O)NCCCN2CCCCC2)c(=O)c2c1sc1ccccc12` (stereo not drawn) came in with an RP-LC retention time of 680 s.
For the compound `O=C(NCCN1CCN(S(=O)(=O)c2ccc(C(F)(F)F)cc2)CC1)c1ccsc1`, the RP-LC retention time was 610 s.
For the compound `COCCN(C)C(=O)c1cn(C2CN(S(=O)(=O)c3cn(C)cn3)C2)nn1`, the RP-LC retention time was determined as 585 s.
Consider `O=C(NCc1ccc2c(c1)OCO2)c1nnc2n(c1=O)CCN2c1ccc(F)cc1`, for which the RP-LC retention time was found to be 683 s.
In turn, `CCc1ccc(CNC(=O)c2cn3c(n2)CCCC3)cc1` came in with an RP-LC retention time of 646 s.
The value for `O=C(c1c(F)cccc1Cl)N1CCCC(c2nnc(-c3ccccc3F)s2)C1` (stereo not drawn) was 920 s.
In turn, `CN1C(=O)Cc2cc(C(=O)N3CCN(c4ccccc4Cl)CC3)ccc21` came in with an RP-LC retention time of 825 s.
`N#Cc1ccc(C(=O)N2CCCC2c2nc(-c3ccc(F)cc3F)no2)cc1` (stereo not drawn) displayed an RP-LC retention time of 921 s.
The value for `CC(C)Cc1nnc(NC(=O)C2CCN(C(=O)c3cccc(F)c3)CC2)s1` was 780 s.
The value for `CCN(c1ccccc1F)S(=O)(=O)c1cc2n(c1)CCCN(C)C2=O` was 780 s.
For `COc1ccc(-c2cc(C(=O)N3CCN(S(=O)(=O)c4ccc(Cl)cc4)CC3)[nH]n2)cc1`, the RP-LC retention time is 909 s.
To `Clc1ccc2nc(-c3ccccc3)c(Nc3ccc4c(c3)OCO4)n2c1` belongs 781 s; to `CCOc1ccccc1CNC(=O)c1cc2c(=O)n(C)ccc2n1C`, 713 s.
The value for `CCc1ccccc1NC(=O)N1CCCC1c1nc(-c2ccccc2)no1` (stereo not drawn) was 987 s; that for `O=C(NCCc1csc(-c2cccc(F)c2)n1)Nc1c(F)cccc1F` was 810 s.
The value for `Cc1ccc(-c2noc(CN3C(=O)COc4cc(C)ccc43)n2)cc1` was 1130 s; that for `O=C(NC1CCc2nnc(C3CC3)n2CC1)c1cccs1` (stereo not drawn) was 589 s.
In the case of `Cc1cc(C)c(NS(=O)(=O)c2cc(-c3nc(C)cs3)sc2C)c(C)c1`, the RP-LC retention time stood at 1190 s.
To `CC(C)CCC(=O)N1CCC2(CC1)CC(O)CCO2` (stereo not drawn) belongs 644 s; to `Cc1nn2c(CNC(=O)c3ccccc3)c(-c3ccccc3)nc2s1`, 810 s.
Regarding `Cc1ccccc1-c1nnc(CSc2nnc(NC(=O)Cc3ccc(F)cc3)s2)o1`, the RP-LC retention time is 923 s.
Take `CCn1cc(CC(=O)Nc2ccc(OC)c(OC)c2)c2cccnc21`: the RP-LC retention time came to 664 s.
`Cn1c(=O)c2c(nc([N+](=O)[O-])n2Cc2ccc(F)cc2)n(C)c1=O` registered an RP-LC retention time of 795 s.
To `Cc1noc(C)c1CNC(=O)C(C)Oc1cccc(Cl)c1` (stereo not drawn) belongs 832 s; to `COc1ccc(NC(=O)CN2CCc3[nH]c4c(F)c(Cl)ccc4c(=O)c3C2)c(OC)c1`, 637 s; to `O=C(Cn1cc(C(=O)C(=O)N2CCCC2)c2ccccc21)NCc1ccc2c(c1)OCCCO2`, 786 s.
In the case of `O=C(NCCc1c[nH]c2ccc(Cl)cc12)c1cc2n(n1)CCCN(Cc1ccc(F)cc1)C2=O`, the RP-LC retention time stood at 927 s.
`COC(=O)c1ccc(Cl)cc1NC(=O)N1CCN(CCn2c(C)nc3cccnc32)CC1`: the RP-LC retention time came to 657 s.
In turn, `Cc1ccc(Oc2cccc(C(=O)NCCNc3cc(N4CCCC4)nc(C)n3)c2)nn1` yielded an RP-LC retention time of 562 s.
`COc1ccc(-c2nc3cccnc3n2C2CCN(C(=O)Nc3cccc(OC)c3)C2)cc1` (stereo not drawn): the RP-LC retention time came out at 746 s.
The value for `CCOc1ccc(-c2noc(CN3C(=O)COc4cc(Cl)ccc43)n2)cc1` was 1180 s.
For the compound `COC(=O)c1ncn2c1C(=O)N(Cc1ccc(Cl)cc1)C(C)(C(=O)NC1CCCC1)C2` (stereo not drawn), the RP-LC retention time stood at 758 s.
To `O=C(c1ccc2[nH]ccc2c1)N1CCN(C(=O)c2nnn3c2COC(c2ccccc2)C3)CC1` (stereo not drawn) belongs 793 s; to `Cc1ccsc1CN1CCCC1c1nnc2n1CCN(C(=O)C(C)C)CC2` (stereo not drawn), 585 s.
`CCOC(=O)c1c(S(=O)(=O)N2CCC(C(=O)Nc3ccc(C)cc3C)CC2)c(C)n(CC)c1C` yielded an RP-LC retention time of 928 s.
As for `Cn1c(N2CCCC(C(=O)N3CCN(c4cccc(C(F)(F)F)c4)CC3)C2)cc(=O)n(C)c1=O` (stereo not drawn), the RP-LC retention time was found to be 831 s.
The value for `CCc1nc(-c2csc(S(=O)(=O)N3CCCC(C(=O)Nc4c(C)cccc4C)C3)c2)no1` (stereo not drawn) was 1010 s.
To `O=C(NCCN1CCOCC1)C1CCN(c2ccc3nnc(-c4ccccc4Cl)n3n2)CC1` belongs 596 s.
On to `COC(=O)c1ccc(NC(=O)N2CC(C)Oc3ccc(C)cc32)cc1` (stereo not drawn), for which the RP-LC retention time was found to be 1220 s.
To `O=C(NCc1cccc(C(F)(F)F)c1)c1cn2nc(Cl)ccc2n1` belongs 908 s; to `CCc1noc(NC(C)=O)c1-c1ccc(OC)c(S(=O)(=O)Nc2cc(Cl)ccc2C)c1`, 870 s; to `COc1ccc(-c2ccnn2-c2ccc(SCc3ccc(C)cc3)nn2)cc1`, 1420 s.
The value for `Cc1ccc(-c2ncccc2CNS(=O)(=O)c2ccc(F)c(F)c2)cc1` was 738 s; that for `Cn1ccc2ccn(CC(=O)Nc3ccccc3)c(=O)c21` was 737 s; that for `CCc1ccc(NC(=O)CSc2nnc3c4cc(-c5ccc(OC)cc5)nn4ccn23)cc1` was 946 s.
The value for `OC(CN1CCN(c2ccccc2)CC1)c1ccc2c(c1)OCO2` (stereo not drawn) was 630 s.
`Cc1ccc(S(=O)(=O)N2CCC3(CC2)c2nccn2CCN3C)cc1F` showed an RP-LC retention time of 654 s.
To `CCNC(=O)Nc1ccc2c(c1)CN(S(=O)(=O)c1ccc3c(c1)CCC3)CCO2` belongs 894 s; to `O=C(COC(=O)C(c1ccccc1)c1ccccc1)Nc1ccc2c(c1)OCO2`, 940 s.
To `Fc1cccc(-c2cc(CN3CCN(c4ncccn4)CC3)[nH]n2)c1` belongs 618 s.
To `COC(=O)c1cccc(NC(=O)N2C[C@@H]3C[C@H](NC(=O)c4ccccc4)[C@H]2C3)c1` belongs 836 s.
In the case of `CCc1noc(C2CCCCN2Cc2nc(-c3cccnc3)no2)n1` (stereo not drawn), the RP-LC retention time was found to be 821 s.
The value for `CN(C)c1cccc(C(=O)Nc2ccc(-c3nnc4n3CCCC4)cc2)c1` was 736 s.
The value for `COc1ccc(N2CCN(C(=O)CC(C)S(=O)(=O)c3ccc4c(c3)CCN4C(C)=O)CC2)cc1` (stereo not drawn) was 754 s.

The values are drawn from the METLIN SMRT retention time set (Domingo-Almenara et al. 2019).
